Measurements published in patent US12384775B2, “Pyrimid-2-yl-pyrazole compounds as IRAK inhibitors” (Rigel Pharmaceuticals, Inc., priority 2022, dated 2025).

Experiments:
[1] = system: TLR4-induced IL-23 production in human primary dendritic cells (DC); test: IL23-p19 ELISA, dendritic cells (DC), LPS; assay type: cell-based; conditions: Dendritic cell; dendritic cells from human PBMC, IFNγ primed, LPS 1 μg/ml, 18 h; read-out: IL23-p19 ELISA, Dendritic, LPS, 10 pt EC50
Description: Human PBMC cells (400 million) obtained from the vendor were transferred into a T-175 flask containing 15 ml RPMI media (10% FBS) and incubate for 2 hours at 37° C. After 2 hours, the media including floating cells was aspirated out carefully and 12 ml of fresh RPMI media (10% FBS) containing GMCSF (100 ng/ml) and IL4 (20 ng/ml) was added, and the flask was kept in a 37° C. incubator for 7 days.
After 3 days, fresh GMCSF (100 ng/ml) and IL4 (20 ng/ml) were added to the flask and the incubation continued. After 7 days, the fully differentiated cells were harvested by spinning down (1200 rpm/5 min) and aspirating the media. […]
155 μl of the supernatant was harvested from each well carefully (without the tip touching the bottom of the well) and to the remaining 50 μl/well of the cell culture plate was added 50 μl of Cell Titer Glo reagent. The mixture was incubated for 1-2 minutes on a shaker and the plate was read for luminescence intensity to determine the compound cytotoxicity. […]
After 45 minutes, the plates were washed with TBST 4× and 100 ul/well Super Signal ELISA Pico Chemiluminescent Substrate from Pierce (3.5 ml A+3.5 ml B+3.5 ml MQ water) was added. The plates were shaken for 1-2 minutes then read on a plate reader. […]

[2] = system: TLR2-induced TNF-α production in human primary dendritic cells (DC); test: TLR2-induced TNF-α in human primary dendritic cells; assay type: cell-based

For `CCO[C@H]1CC[C@H](n2cc(NC(=O)c3csc(-c4cn[nH]c4)n3)c(-c3ncccn3)n2)CC1` [Compound I-1, N-(1-((1r,4r)-4-ethoxycyclohexyl)-3-(pyrimidin-2-yl)-1H-pyrazol-4-yl)-2-(1H-pyrazol-4-yl)thiazole-4-carboxamide], the EC50 [1] was 0.18 µM and the “TLR2-induced TNF-α production in human primary dendritic cells (DC)” value [2] was “blocks”.
